Consider 3 molecules from patent US8759315B2, “Methods for rejuvenating” (Viacell, LLC, priority 2003, dated 2014).

For one assay, the system named is Whole blood. In words: Rejuvenation of stored whole blood, DPG assay. The assay is classed as cell-based. The method, then: (§1) The DPG assay was as follows: • To 2 mL Tris buffer with EDTA, was added 0.05 ml ATP 40 mM plus NADH 9.6 mM; 0.04 ml PGM (Sigma kit 665PA, Sigma, Inc. St. Louis, Mo.) and 0.1 ml RBC. The reaction mixture was allowed to equilibrate for five minutes at room temperature and the absorption at 339 nm wavelength was recorded. Next was added 0.02 ml PGM and 0.02 ml glycolate-2-phosphate. The reaction was allowed to proceed for 25 minutes and the absorption at 339 nm wavelength was recorded. The packed cell DPG equals (μmol/ml)×100 divided by the hematocrit.
An experiment was devised to determine whether the DPG levels could be brought back to approximate initial levels, that is, whether the RBC could be rejuvenated. Whole blood with heparin as anticoagulant was held at room temperature for 6 days, at which time DPG levels were undetectable. D-ribose at 10 mM was added and the blood was incubated at 37° C. for thirty minutes. […] The incubation time will be extended to determine whether the DPG levels can be further increased.

For assay [1], the system named is RBC. In words: Oxygen dissociation curve (P50) of stored and rejuvenated blood. The assay is classed as cell-based. Conditions: six-day CPD sample rejuvenated as for Example 3A (10 mM D-ribose, 37° C., thirty minutes). The text has this: When the percent saturation of oxygen in blood is plotted against the partial pressure of oxygen (mmHg), the resulting curve is shown in FIG. 2. A shift to the right occurs when DPG is increased or pH is decreased. Consistent with the DPG experiments, the oxygen tension giving 50% saturation (P50) after six days storage in CPD was 43 mmHg. When this sample was rejuvenated as for Example 3A above, the P50 was 18.2 mmHg.

Assay [2] has as its system RBC. The settings on record: 42 days of storage at 4° C.; D-ribose: 15mM D-ribose and 10 mM phosphate added to CPD; cited from earlier work.
Assay [3] has as its system RBC. In words: Rejuvenation with D-ribose and phosphoenolpyruvate, DPG assay. The assay is classed as cell-based. The settings on record: six days at room temperature, then 15 mM D-ribose, 10 mM to 100 mM PEP or both, 37°, 30 minutes; day 0 about 2 μmol/ml (FIG. 3). As to the method:
as §1
The rejuvenation experiment of Example 4 was repeated adding the high energy glycolysis intermediate phosphoenolpyruvate (PEP). Samples were held at for six days at room temperature until DPG levels were barely detectable. At that point, 15 mM D-ribose, 10 mM to 100 mM PEP or both were added and the blood incubated at 37° for 30 minutes. […] Adding PEP gave some benefit, raising the DPG levels to nearly 1 μmol/ml. Ribose also raised levels to about 1 μmol/ml. The effect of ribose plus PEP was additive: levels exceeded 1.5 μmol/ml, nearly the levels on day 0.

For `O=C[C@H](O)[C@H](O)[C@H](O)CO` [D-ribose], the “DPG after rejuvenation, as part of the usual initial value” in the assay with Whole blood (whole blood with heparin held 6 days at room temperature (DPG undetectable), 10 mM D-ribose, 37° C., thirty minutes) was “about one-third”. The “oxygen tension giving 50% saturation (P50)” value with RBC [1] stood at 18.2 mmHg. For the same molecule, the “2,3 DPG level maintained, of its initial level” value with RBC [2] was “about 50%”. Further, the “DPG levels after rejuvenation” value in the assay on RBC [3] was “about 1 μmol/ml”.

For the molecule `C=C(OP(=O)(O)O)C(=O)O` [PEP, phosphoenolpyruvate], the “DPG levels after rejuvenation” value with RBC [3] is “about 1 μmol/ml”.

`OC[C@H]1O[C@@H](n2cnc3c(O)ncnc32)[C@H](O)[C@@H]1O` [inosine]: in the assay on Whole blood (ribose reduced to one mM or increased to 100 mM, inosine substituted for ribose), the effect on rejuvenation entry is given as “equally beneficial effects on rejuvenation”.
